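Following 48 hours of exposure in 96-well plates, responses at five concentrations were used to interpolate endpoints linearly. TGI marks complete inhibition of growth.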
Columns and labels:
Experiment in all cases: inhibition of tumour cell growth, NCI panel, 48 h
[1] = test system: HCT-116 colon
[2] = test system: SW-620 colon
[3] = test system: A498 renal
[4] = test system: HT29 colon
[5] = test system: SR leukemia
[6] = test system: SK-OV-3 ovarian
[7] = test system: UACC-62 melanoma
[8] = test system: MCF7 breast
[9] = test system: U251 CNS
[10] = test system: COLO 205 colon
[11] = test system: CCRF-CEM leukemia
[12] = test system: SF-539 CNS
[13] = test system: OVCAR-4 ovarian
[14] = test system: HS 578T breast
[15] = test system: IGROV1 ovarian
[16] = test system: SK-MEL-2 melanoma
[17] = test system: M14 melanoma
[18] = test system: EKVX NSCLC
[19] = test system: BT-549 breast
[20] = test system: 786-0 renal
[21] = test system: RXF 393 renal
[22] = test system: SF-295 CNS
[23] = test system: NCI-H460 lung
[24] = test system: UACC-257 melanoma
[25] = test system: T-47D breast
[26] = test system: SNB-19 CNS
[27] = test system: DU-145 prostate
[28] = test system: HOP-92 NSCLC
[29] = test system: OVCAR-3 ovarian
[30] = test system: NCI/ADR-RES ovarian
[31] = test system: NCI-H522 lung
[32] = test system: SN12C renal
[33] = test system: RPMI-8226 leukemia
[34] = test system: OVCAR-8 ovarian
[35] = test system: LOX IMVI melanoma
[36] = test system: UO-31 renal
[37] = test system: SF-268 CNS
[38] = test system: MDA-MB-231 breast
[39] = test system: MDA-N
[40] = test system: SNB-75 CNS
[41] = test system: MDA-MB-435
[42] = test system: HCT-15 colon
[43] = test system: SK-MEL-5 melanoma
[44] = test system: A549 NSCLC
[45] = test system: NCI-H226 lung
[46] = test system: ACHN renal
[47] = test system: TK-10 renal
[48] = test system: MOLT-4 leukemia
[49] = test system: KM12 colon
[50] = test system: OVCAR-5 ovarian
[51] = test system: HL-60(TB) leukemia
[52] = test system: PC-3 prostate
[53] = test system: CAKI-1 renal
[54] = test system: NCI-H23 lung
[55] = test system: SNB-78 CNS
[56] = test system: LXFL 529 NSCLC
[57] = test system: KM20L2 colon
[58] = test system: K-562 leukemia
[59] = test system: SK-MEL-28 melanoma
[60] = test system: HCC-2998 colon
[61] = test system: MALME-3M melanoma
[62] = test system: DMS 114 small cell lung
[63] = test system: DMS 273 small cell lung
[64] = test system: M19-MEL melanoma
[65] = test system: HOP-62 NSCLC

## Nc1ncc2c(n1)-c1ccccc1OC2N1CCCCC1 (stereo not given)
[1]
  TGI: > 100 µM
[2]
  TGI: > 100 µM
[3]
  TGI: > 100 µM
[4]
  TGI: > 100 µM
[5]
  TGI: > 100 µM
[6]
  TGI: > 100 µM
[7]
  TGI: > 100 µM
[8]
  TGI: > 100 µM
[9]
  TGI: > 100 µM
[10]
  TGI: > 100 µM
[11]
  TGI: > 100 µM
[12]
  TGI: > 100 µM
[13]
  TGI: > 100 µM
[14]
  TGI: > 100 µM
[15]
  TGI: > 100 µM
[16]
  TGI: > 100 µM
[17]
  TGI: > 100 µM
[18]
  TGI: > 100 µM
[19]
  TGI: > 100 µM
[20]
  TGI: > 100 µM
[21]
  TGI: > 100 µM
[22]
  TGI: > 100 µM
[23]
  TGI: > 100 µM
[24]
  TGI: > 100 µM
[25]
  TGI: > 100 µM
[26]
  TGI: > 100 µM
[27]
  TGI: > 100 µM
[28]
  TGI: > 100 µM
[29]
  TGI: > 100 µM
[30]
  TGI: > 100 µM
[31]
  TGI: > 100 µM
[32]
  TGI: > 100 µM
[33]
  TGI: > 100 µM
[34]
  TGI: > 100 µM
[35]
  TGI: > 100 µM
[36]
  TGI: > 100 µM
[37]
  TGI: > 100 µM
[38]
  TGI: > 100 µM
[39]
  TGI: > 100 µM
[40]
  TGI: > 100 µM
[41]
  TGI: > 100 µM
[42]
  TGI: > 100 µM
[43]
  TGI: > 100 µM
[44]
  TGI: > 100 µM
[45]
  TGI: > 100 µM
[46]
  TGI: > 100 µM
[47]
  TGI: > 100 µM
[48]
  TGI: > 100 µM
[49]
  TGI: > 100 µM
[50]
  TGI: > 100 µM
[51]
  TGI: > 100 µM
[52]
  TGI: > 100 µM
[53]
  TGI: > 100 µM
[54]
  TGI: > 100 µM

## COc1ccc(/C=C/COC(C)=O)cc1OC
[2]
  TGI: > 100 µM
[4]
  TGI: > 100 µM
[5]
  TGI: > 100 µM
[55]
  TGI: > 100 µM
[6]
  TGI: > 100 µM
[56]
  TGI: > 100 µM
[7]
  TGI: > 100 µM
[9]
  TGI: > 100 µM
[57]
  TGI: > 100 µM
[10]
  TGI: > 100 µM
[58]
  TGI: > 100 µM
[12]
  TGI: > 100 µM
[13]
  TGI: > 100 µM
[15]
  TGI: > 100 µM
[16]
  TGI: > 100 µM
[18]
  TGI: > 100 µM
[20]
  TGI: > 100 µM
[21]
  TGI: > 100 µM
[59]
  TGI: > 100 µM
[22]
  TGI: > 100 µM
[24]
  TGI: > 100 µM
[60]
  TGI: > 100 µM
[26]
  TGI: > 100 µM
[28]
  TGI: > 100 µM
[29]
  TGI: > 100 µM
[31]
  TGI: > 100 µM
[32]
  TGI: > 100 µM
[61]
  TGI: > 100 µM
[33]
  TGI: > 100 µM
[62]
  TGI: > 100 µM
[34]
  TGI: > 100 µM
[36]
  TGI: > 100 µM
[37]
  TGI: > 100 µM
[40]
  TGI: > 100 µM
[42]
  TGI: > 100 µM
[43]
  TGI: > 100 µM
[44]
  TGI: > 100 µM
[45]
  TGI: > 100 µM
[63]
  TGI: > 100 µM
[46]
  TGI: > 100 µM
[47]
  TGI: > 100 µM
[48]
  TGI: > 100 µM
[49]
  TGI: > 100 µM
[64]
  TGI: > 100 µM
[50]
  TGI: > 100 µM
[53]
  TGI: > 100 µM
[54]
  TGI: > 100 µM

## COCOC1/C=C/CCCCC(=O)C(C)C#CC1 (stereo not given)
[1]
  TGI: 3.34 µM
[2]
  TGI: 3.56 µM
[3]
  TGI: 24.6 µM
[4]
  TGI: 8.28 µM
[5]
  TGI: 8.02 µM
[6]
  TGI: 32.3 µM
[7]
  TGI: 15.8 µM
[8]
  TGI: 14.8 µM
[9]
  TGI: 28 µM
[10]
  TGI: 5.4 µM
[58]
  TGI: 7.66 µM
[11]
  TGI: 5.81 µM
[12]
  TGI: 11.7 µM
[13]
  TGI: 24.4 µM
[14]
  TGI: > 73.7 µM
[15]
  TGI: 18.1 µM
[16]
  TGI: 21.2 µM
[17]
  TGI: 14.5 µM
[18]
  TGI: 23.1 µM
[19]
  TGI: 19.3 µM
[20]
  TGI: 5.44 µM
[21]
  TGI: 9.19 µM
[59]
  TGI: 25.4 µM
[22]
  TGI: 31.3 µM
[23]
  TGI: 23.9 µM
[24]
  TGI: 19.5 µM
[60]
  TGI: 20.2 µM
[25]
  TGI: 6.39 µM
[26]
  TGI: 32.6 µM
[27]
  TGI: 25.4 µM
[28]
  TGI: 8.46 µM
[29]
  TGI: 10.9 µM
[30]
  TGI: 14.4 µM
[31]
  TGI: 3.37 µM
[32]
  TGI: 19 µM
[61]
  TGI: 4.95 µM
[33]
  TGI: 5.96 µM
[34]
  TGI: 17.7 µM
[35]
  TGI: 7.36 µM
[36]
  TGI: 18.9 µM
[37]
  TGI: 35.1 µM
[38]
  TGI: 15.6 µM
[39]
  TGI: 27 µM
[40]
  TGI: 26.1 µM
[41]
  TGI: 18.3 µM
[42]
  TGI: 7.11 µM
[43]
  TGI: 15.3 µM
[65]
  TGI: 33.9 µM
[44]
  TGI: 30.1 µM
[45]
  TGI: 35.3 µM
[46]
  TGI: 19.9 µM
[47]
  TGI: 21.6 µM
[48]
  TGI: 5.64 µM
[49]
  TGI: 25.5 µM
[50]
  TGI: 26.2 µM
[51]
  TGI: 4.33 µM
[52]
  TGI: 24 µM
[53]
  TGI: 13.7 µM
[54]
  TGI: 16.3 µM

## O=C1c2sc(-c3ccc(Cl)cc3)cc2-n2cccc21
[1]
  TGI: > 100 µM
[2]
  TGI: > 100 µM
[3]
  TGI: > 100 µM
[4]
  TGI: > 100 µM
[5]
  TGI: > 100 µM
[6]
  TGI: > 100 µM
[7]
  TGI: > 100 µM
[8]
  TGI: > 100 µM
[9]
  TGI: > 100 µM
[10]
  TGI: > 100 µM
[58]
  TGI: > 100 µM
[11]
  TGI: > 100 µM
[13]
  TGI: > 100 µM
[14]
  TGI: > 100 µM
[15]
  TGI: > 100 µM
[16]
  TGI: > 100 µM
[17]
  TGI: > 100 µM
[18]
  TGI: > 100 µM
[19]
  TGI: > 100 µM
[20]
  TGI: > 100 µM
[21]
  TGI: > 100 µM
[59]
  TGI: > 100 µM
[22]
  TGI: > 100 µM
[23]
  TGI: > 100 µM
[24]
  TGI: > 100 µM
[60]
  TGI: > 100 µM
[25]
  TGI: > 100 µM
[26]
  TGI: > 100 µM
[27]
  TGI: > 100 µM
[29]
  TGI: > 100 µM
[30]
  TGI: > 100 µM
[31]
  TGI: > 100 µM
[32]
  TGI: > 100 µM
[61]
  TGI: > 100 µM
[33]
  TGI: > 100 µM
[34]
  TGI: > 100 µM
[35]
  TGI: > 100 µM
[36]
  TGI: > 100 µM
[37]
  TGI: > 100 µM
[38]
  TGI: > 100 µM
[39]
  TGI: > 100 µM
[40]
  TGI: > 100 µM
[41]
  TGI: > 100 µM
[42]
  TGI: > 100 µM
[43]
  TGI: > 100 µM
[65]
  TGI: > 100 µM
[44]
  TGI: > 100 µM
[45]
  TGI: > 100 µM
[46]
  TGI: > 100 µM
[47]
  TGI: > 100 µM
[48]
  TGI: > 100 µM
[49]
  TGI: > 100 µM
[50]
  TGI: > 100 µM
[52]
  TGI: > 100 µM
[53]
  TGI: > 100 µM

— PubChem BioAssay (NCI)
